The numbers were not newly measured in PubChem BioAssay AID1259409 (Chemical Carcinogenesis Research Information System (CCRIS), 2018), which cites them from elsewhere.

Where a SMILES comes first, the peptide text is derived from it.

In the data set the test system is rodent chemically induced tumor inhibition, incidence and multiplicity. Kind of data set: CCRIS tumor inhibitor studies.

In the case of `NCCCC[C@H](N)C(=O)N[C@@H](CCC(=O)O)C(=O)O` (H-Lys-Glu-OH), the “tumour outcome (control, treated, inhibition, significance)” value (Carcinogen: N-BUTYL-N-(4-HYDROXYBUTYL)NITROSAMINE, 3817-11-6, Dose [Inhibitor]: 0, 30 UG/ANIMAL IN RIGHT THIGH DOES OF 1 UG/KG BW 1/D FOR 5 D WITH 4 WK INTERVALS FOR 6 MO (STUDY DURATION: 49 WK), Route [Inhibitor]: INTRAMUSCULAR, Species: RAT, Strain/Sex: ALBINO/MALE, Target Tissue: Type of Lesion: URINARY BLADDER: BENIGN TUMOR, Dose [Carcinogen]: 0.04% IN DRINKING WATER FOR FIRST 12 WK) is given as 13/49 (27%), 14/50 (28%), -4%, not calculated and the “tumour outcome (control, treated, inhibition, significance)” value (Carcinogen: N-BUTYL-N-(4-HYDROXYBUTYL)NITROSAMINE, 3817-11-6, Dose [Inhibitor]: 0, 30 UG/ANIMAL IN RIGHT THIGH DOES OF 1 UG/KG BW 1/D FOR 5 D WITH 4 WK INTERVALS FOR 6 MO (STUDY DURATION: 49 WK), Route [Inhibitor]: INTRAMUSCULAR, Species: RAT, Strain/Sex: ALBINO/MALE, Target Tissue: Type of Lesion: URINARY BLADDER: IN SITU CARCINOMA, Dose [Carcinogen]: 0.04% IN DRINKING WATER FOR FIRST 12 WK) is 11/49 (22%), 4/50 (8%), 64%, not calculated.

For `CC(C)=C1C=CC(O)CC1` (centres undefined), for the setting “Carcinogen: 7,12-DIMETHYLBENZ[A]ANTHRACENE, 57-97-6, Dose [Inhibitor]: 0, 12 NMOL PER REPEATED APPLICATION FOR 20 WK (STUDY DURATION: 20 WK), Route [Inhibitor]: DERMAL, Species: MOUSE, Strain/Sex: CD-1/FEMALE, Target Tissue: Type of Lesion: SKIN: TUMOR, Dose [Carcinogen]: 100 UG ONCE, Promoter: OKADAIC ACID, 78111-17-8”, the “tumour outcome (control, treated, inhibition, significance)” value is on record as 87%, 67%, 23%, not calculated.

For `CN(C)CCOc1ccc([C@H]2C[C@]3(C)[C@@H](O)CC[C@H]3[C@@H]3CCc4cc(O)ccc4[C@H]32)cc1`, the “tumour outcome (control, treated, inhibition, significance)” value (Carcinogen: ESTRADIOL, 50-28-2, Dose [Inhibitor]: 0, 25 MG/PELLET 2 PELLETS IMPLANTED EVERY 3 MO BEGINNING 15 D PRIOR TO CARCINOGEN DOSE (STUDY DURATION: 8 MO), Route [Inhibitor]: SUBCUTANEOUS IMPLANT, Species: HAMSTER, Strain/Sex: SYRIAN/MALE, Target Tissue: Type of Lesion: KIDNEY: TUMOR, Dose [Carcinogen]: 25 MG PELLET IMPLANTED EVERY 3 MO, Promoter: NONE USED) is given as 5/5 (100%), 7/8 (88%), 12%, not significant.

Take `CCCCCCCCCCCCCCCC`: the “tumour outcome (control, treated, inhibition, significance)” value is, setting by setting: (Carcinogen: BENZO[A]PYRENE, 50-32-8, Dose [Inhibitor]: 25 MG IN 0.1 ML ACETONE 3/WK ADMINISTERED SIMULTANEOUSLY WITH CARCINOGEN FOR DURATION OF STUDY (STUDY DURATION: 440 D), Route [Inhibitor]: DERMAL, Species: MOUSE, Strain/Sex: ICR/FEMALE, Target Tissue: Type of Lesion: SKIN: PAPILLOMA, Dose [Carcinogen]: 5 UG IN 0.1 ML ACETONE 3/WK FOR DURATION OF STUDY, Promoter: NONE USED) 16/50 (32%), 5/50 (10%), 69%, not calculated; (Carcinogen: BENZO[A]PYRENE, 50-32-8, Dose [Inhibitor]: 25 MG IN 0.1 ML ACETONE 3/WK ADMINISTERED SIMULTANEOUSLY WITH CARCINOGEN FOR DURATION OF STUDY (STUDY DURATION: 440 D), Route [Inhibitor]: DERMAL, Species: MOUSE, Strain/Sex: ICR/FEMALE, Target Tissue: Type of Lesion: SKIN: SQUAMOUS CARCINOMA, Dose [Carcinogen]: 5 UG IN 0.1 ML ACETONE 3/WK FOR DURATION OF STUDY, Promoter: NONE USED) 12/50 (24%), 2/50 (4%), 83%, not calculated.

As to `Cc1ccc(O)c(C(C)(C)C)c1`, the “tumour outcome (control, treated, inhibition, significance)” value was 7/19 (37%), 5/19 (26%), 29%, not calculated (Carcinogen: 7,12-DIMETHYLBENZ[A]ANTHRACENE, 57-97-6, Dose [Inhibitor]: 1.0% IN POWDERED DIET BEGINNING 1 WK POST CARCINOGEN DOSE FOR 51 WK (STUDY DURATION: 52 WK), Route [Inhibitor]: ORAL, Species: RAT, Strain/Sex: SPRAGUE-DAWLEY/FEMALE, Target Tissue: Type of Lesion: EAR DUCT: BENIGN TUMOR, Dose [Carcinogen]: 2.5 MG/100 G BW IN 0.5 ML SESAME OIL ONCE, Promoter: NONE USED); 6/19 (32%), 6/19 (32%), 0%, not significant (Carcinogen: 7,12-DIMETHYLBENZ[A]ANTHRACENE, 57-97-6, Dose [Inhibitor]: 1.0% IN POWDERED DIET BEGINNING 1 WK POST CARCINOGEN DOSE FOR 51 WK (STUDY DURATION: 52 WK), Route [Inhibitor]: ORAL, Species: RAT, Strain/Sex: SPRAGUE-DAWLEY/FEMALE, Target Tissue: Type of Lesion: MAMMARY GLAND: CARCINOMA, Dose [Carcinogen]: 2.5 MG/100 G BW IN 0.5 ML SESAME OIL ONCE, Promoter: NONE USED); 15/19 (79%), 2/19 (11%), 87%, p<0.001 (Carcinogen: 7,12-DIMETHYLBENZ[A]ANTHRACENE, 57-97-6, Dose [Inhibitor]: 1.0% IN POWDERED DIET BEGINNING 1 WK POST CARCINOGEN DOSE FOR 51 WK (STUDY DURATION: 52 WK), Route [Inhibitor]: ORAL, Species: RAT, Strain/Sex: SPRAGUE-DAWLEY/FEMALE, Target Tissue: Type of Lesion: MAMMARY GLAND: FIBROADENOMA, Dose [Carcinogen]: 2.5 MG/100 G BW IN 0.5 ML SESAME OIL ONCE, Promoter: NONE USED).
